Like-named read-outs stand apart in the source and are kept apart here.
What was measured:
Type in all cases: in vivo
[1] = tested on: tobacco Mosaic virus (TMV); experiment: Anti-TMV activity: live protection function; conditions: for inhibition at 500 µg/mL: Tobacco mosaic virus, read-out: Relative inhibition rate (%) Live protection function; for antiTMV activity / TMV activity: 500µg/mL, Table 4 (all three modes); for antiTMV activity: compared with commercial Ningnanmycin; for TMV activity: compared with ribavirin; for Relative inhibition rate (%) Live protection function: Treatment dose 500 mg/L, tobacco Xanthi nc sprayed 24h before inoculation, virus 10µg/mL, disease spots counted after 3 days
Protocol: (§1) Determination of anti-tobacco Mosaic virus (TMV) activity by the following procedure:
(§2) The virus crude extract was centrifuged with polyethylene glycol at twice and refrigerated at 4°C for use. The absorbance of 260nm wavelength was determined by ultraviolet spectrophotometer, and the virus concentration was calculated according to the formula. Virus concentration(mg/ml) = (A260 × dilution ratio)(/E)^0.10 1cm^260nm . [formula]
(§3) After weighing, cryptolepine salt derivative, ningnanmycin and the original drug of ribavirin were dissolved in DMF to obtain 1×10^5µg/mL mother solution, and then diluted to the required concentration with 1‰ Tween 80 aqueous solution.
Select the 3-5 leaf stage of tobacco Xanthi nc with uniform growth, spray the whole plant, repeat each treatment 3 times, and set 1‰ Tween80 aqueous solution as control. 24h later, the leaf surface was coated with emery (500 mesh), the disease venom was dipped with a brush, and the whole leaf surface was gently rubbed twice along the direction of the branch pulse by using the brush, the leaf was supported by palm of hand, the virus concentration was 10µg/mL, and the leaf was washed by water after inoculation. After 3 days, the number of disease spots was recorded and the prevnetion and control effect was calculated.

[2] = tested on: tobacco Mosaic virus (TMV); experiment: Anti-TMV activity: live treatment effect; conditions: for inhibition at 500 µg/mL: Tobacco mosaic virus, 72 h, read-out: Relative inhibition rate (%) Live treatment effect; for Relative inhibition rate (%) Live treatment effect: Treatment dose 500 mg/L, tobacco Xanthi nc inoculated (virus 10µg/mL), then sprayed, disease spots counted after 3 days
Protocol: as §1, §2, §3
Select the 3-5 leaf stage of tobacco Xanthi nc with uniform growth, use a brush to vaccinate the virus in the whole leaf, the virus concentration is 10µg/mL, and the leaf was washed with running water after inoculation. After the leaves were dried, the whole plant was sprayed with test sample, repeated 3 times every treatment, and 1‰ Tween 80 aqueous solution was set as control. After 3 days, the number of disease spots was recorded and the prevnetion and control effect was calculated.

[3] = tested on: tobacco Mosaic virus (TMV); experiment: Anti-TMV activity: living passivation activity test; conditions: for inhibition at 500 µg/mL: Tobacco mosaic virus, read-out: Relative inhibition rate (%) Living passivation activity test; for Relative inhibition rate (%) Living passivation activity test: Treatment dose 500 mg/L, sample mixed with virus juice for 30min, then inoculated on tobacco Xanthi nc, virus 20µg/mL, 3 days
Protocol: as §1, §2, §3
Select the 3-5 leaf stage of tobacco Xanthi nc with uniform growth, mix the test sample agent with the same volume of virus juice to passivate for 30min, friction inoculation, virus concentration 20µg/mL, the leaf was washed with running water after inoculation, repeat 3 times, set 1‰ Tween 80 aqueous solution as control. 3 days later, the number of disease spots was calculated. [formula]
Anti-tobacco Mosaic virus passivation activity test of all compounds was at a treatment dose of 500µg/mL. The positive control was the commercial anti-plant virus agent viriazole.

[4] = tested on: rice sheath blight strains; experiment: Bactericidal activity test: resistance to rice sheath blight (live pot test); conditions: for pest or weed control at 400 µg/mL: Oryza sativa, 144 h
Protocol: Bactericidal activity test, the determination procedure is as follows: Test of resistance to rice sheath blight: Select uniformly growing rice seedlings and spray them on the leaves at the set concentration, set a water sprayring group as blank control, every treatment was repeated twice. After 24h, the rice seedlings were inoculated with rice sheath blight strains and placed at room temperature (25±4°C) for normal management after inoculation. The prevention and control effect was investigated by visual inspection 6 days after inoculation.

[5] = 400mg/L leaf spray on rice seedlings, inoculated after 24h, visual inspection 6 days after inoculation, read-out: Resistance to rice sheath blight (%)/400mg/L
[6] = read-out: Resistance to rice sheath blight (%)/400mg/L
[7] = read-out: bactericidal activity against rice sheath blight
[8] = 400mg/L leaf spray on rice seedlings, inoculated after 24h, visual inspection 6 days after inoculation
[9] = live pot test, summary of Table 5 (400mg/L), read-out: bactericidal activity against rice sheath blight

C[n+]1c2ccccc2c(NCCN)c2[nH]c3ccccc3c21 [Example 32]
inhibition at 500 µg/mL [1]: 25.1 ± 4.3%
inhibition at 500 µg/mL [2]: 30.1 ± 0.4%
inhibition at 500 µg/mL [3]: 28.7 ± 2.1%
pest or weed control at 400 µg/mL [4, 5]: 30%

C[n+]1c2ccccc2cc2c1c1ccccc1n2S(=O)(=O)c1ccccc1 [Example 22]
inhibition at 500 µg/mL [1]: 14 ± 1.1%
inhibition at 500 µg/mL [2]: 18.2 ± 1.1%
inhibition at 500 µg/mL [3]: 15.5 ± 1.1%
pest or weed control at 400 µg/mL [4, 6]: 45 ± 5%
pest or weed control at 400 µg/mL [4, 7]: > 50%

C[n+]1c2ccccc2c(NCCCCN)c2[nH]c3ccccc3c21 [Example 34]
antiTMV activity [1]: comparable to that of commercial Ningnanmycin
TMV activity [1]: better TMV activity than the ribavirin
inhibition at 500 µg/mL [1]: 50.3 ± 2.1%
inhibition at 500 µg/mL [2]: 43.9 ± 2%
inhibition at 500 µg/mL [3]: 41.2 ± 4.6%
pest or weed control at 400 µg/mL [4, 5]: 20%

CC(C)CCNc1c2ccccc2[n+](C)c2c1[nH]c1ccccc12 [Example 26]
TMV activity [1]: better TMV activity than the ribavirin
inhibition at 500 µg/mL [1]: 43.1 ± 3.4%
inhibition at 500 µg/mL [2]: 45.4 ± 1.9%
inhibition at 500 µg/mL [3]: 37 ± 3%
pest or weed control at 400 µg/mL [4, 5]: 35 ± 5%

Cc1ccc(S(=O)(=O)n2c3ccccc3c3c2cc2cc(Br)ccc2[n+]3C)cc1 [Example 13]
antiTMV activity [1]: comparable to that of commercial Ningnanmycin
TMV activity [1]: better TMV activity than the ribavirin
inhibition at 500 µg/mL [1]: 50.8 ± 1%
inhibition at 500 µg/mL [2]: 52 ± 2.4%
inhibition at 500 µg/mL [3]: 46.1 ± 3.9%
pest or weed control at 400 µg/mL [4, 6]: 35 ± 5%

C[n+]1c2ccccc2c(NC2CCCC2)c2[nH]c3ccccc3c21 [Example 29]
inhibition at 500 µg/mL [1]: 38.6 ± 4.6%
inhibition at 500 µg/mL [2]: 36.5 ± 2.3%
inhibition at 500 µg/mL [3]: 30.5 ± 0.9%
pest or weed control at 400 µg/mL [4, 5]: 30%

Cc1ccc(S(=O)(=O)n2c3ccc(Cl)cc3c3c2cc2ccccc2[n+]3C)cc1 [Example 5]
antiTMV activity [1]: comparable to that of commercial Ningnanmycin
TMV activity [1]: better TMV activity than the ribavirin
inhibition at 500 µg/mL [1]: 46.7 ± 4.1%
inhibition at 500 µg/mL [2]: 35.8 ± 4.8%
inhibition at 500 µg/mL [3]: 39.3 ± 2.5%
pest or weed control at 400 µg/mL [4, 6]: 55 ± 5%
pest or weed control at 400 µg/mL [4, 7]: > 50%

COC(=O)c1ccc2c(c1)cc1c(c3ccccc3n1S(=O)(=O)c1ccc(C)cc1)[n+]2C [Example 15]
inhibition at 500 µg/mL [1]: 15.6 ± 0.4%
inhibition at 500 µg/mL [2]: 22.1 ± 0.2%
inhibition at 500 µg/mL [3]: 20 ± 1%
pest or weed control at 400 µg/mL [4, 6]: 40%

C[n+]1c2ccccc2c(NCC2CCNCC2)c2[nH]c3ccccc3c21.[I-] [Example 42]
Relative inhibition rate (%) Live protection function [1]: 28.1±3.0%
Relative inhibition rate (%) Live treatment effect [2]: 30.2±2.1%
Relative inhibition rate (%) Living passivation activity test [3]: 25.1±0.2%
Resistance to rice sheath blight (%)/400mg/L [4, 8]: 25±5%

C[n+]1c2ccccc2c(NCC2CCCCC2)c2[nH]c3ccccc3c21 [Example 30]
inhibition at 500 µg/mL [1]: 20.9 ± 2.9%
inhibition at 500 µg/mL [2]: 21.5 ± 1.1%
inhibition at 500 µg/mL [3]: 30 ± 0.8%
pest or weed control at 400 µg/mL [4, 5]: 35 ± 5%

C[n+]1c2ccccc2c(NCC2CC2)c2[nH]c3ccccc3c21 [Example 28]
inhibition at 500 µg/mL [1]: 20.5 ± 1.7%
inhibition at 500 µg/mL [2]: 19.6 ± 0.2%
inhibition at 500 µg/mL [3]: 25.3 ± 1.2%
pest or weed control at 400 µg/mL [4, 5]: 60%
pest or weed control at 400 µg/mL [4, 9]: > 50%

C[n+]1c2ccccc2c(NCCCN)c2[nH]c3ccccc3c21.[I-] [Example 33]
antiTMV activity [1]: comparable to that of commercial Ningnanmycin
TMV activity [1]: better TMV activity than the ribavirin
Relative inhibition rate (%) Live protection function [1]: 57.9±4.6%
Relative inhibition rate (%) Live treatment effect [2]: 51.7±3.6%
Relative inhibition rate (%) Living passivation activity test [3]: 49.8±3.1%
Resistance to rice sheath blight (%)/400mg/L [4, 8]: 40±0%

CNCCCNc1c2ccccc2[n+](C)c2c1[nH]c1ccccc12 [Example 38]
inhibition at 500 µg/mL [1]: 35 ± 4.1%
inhibition at 500 µg/mL [2]: 40.2 ± 1%
inhibition at 500 µg/mL [3]: 30.7 ± 1.2%
pest or weed control at 400 µg/mL [4, 5]: 30%

C[n+]1c2ccccc2c(NCCCC2CCCCC2)c2[nH]c3ccccc3c21 [Example 31]
inhibition at 500 µg/mL [1]: 29.5 ± 1.3%
inhibition at 500 µg/mL [2]: 28.9 ± 1.1%
inhibition at 500 µg/mL [3]: 30.5 ± 0.2%
pest or weed control at 400 µg/mL [4, 5]: 25 ± 5%

C[n+]1c2ccccc2c(NC2CCNCC2)c2[nH]c3ccccc3c21 [Example 41]
TMV activity [1]: better TMV activity than the ribavirin
inhibition at 500 µg/mL [1]: 40.8 ± 4.7%
inhibition at 500 µg/mL [2]: 34.1 ± 2.3%
inhibition at 500 µg/mL [3]: 30.6 ± 4%
pest or weed control at 400 µg/mL [4, 5]: 40%

Cc1ccc(S(=O)(=O)n2c3ccccc3c3c2cc2ccc(C)cc2[n+]3C)cc1 [Example 16]
inhibition at 500 µg/mL [1]: 28.1 ± 4.5%
inhibition at 500 µg/mL [2]: 30.1 ± 1.1%
inhibition at 500 µg/mL [3]: 18.9 ± 0.8%
pest or weed control at 400 µg/mL [4, 6]: 95 ± 5%
pest or weed control at 400 µg/mL [4, 7]: > 95%

Cc1ccc(S(=O)(=O)n2c3ccccc3c3c2cc2ccccc2[n+]3CC2CC2)cc1 [Example 18]
TMV activity [1]: better TMV activity than the ribavirin
inhibition at 500 µg/mL [1]: 45.6 ± 0.9%
inhibition at 500 µg/mL [2]: 38.7 ± 2.4%
inhibition at 500 µg/mL [3]: 40.8 ± 2.9%
pest or weed control at 400 µg/mL [4, 6]: 45 ± 5%
pest or weed control at 400 µg/mL [4, 7]: > 50%

CN1CCC(Nc2c3ccccc3[n+](C)c3c2[nH]c2ccccc23)CC1 [Example 44]
inhibition at 500 µg/mL [1]: 27.3 ± 4.4%
inhibition at 500 µg/mL [2]: 33.1 ± 0.3%
inhibition at 500 µg/mL [3]: 35.3 ± 2.1%
pest or weed control at 400 µg/mL [4, 5]: 55 ± 5%
pest or weed control at 400 µg/mL [4, 9]: > 50%

CCCCCNc1c2ccccc2[n+](C)c2c1[nH]c1ccccc12 [Example 24]
Relative inhibition rate (%) Live protection function [1]: 36.9±3.7%
Relative inhibition rate (%) Live treatment effect [2]: 30.3±0.8%
Relative inhibition rate (%) Living passivation activity test [3]: 35.2±1.0%
Resistance to rice sheath blight (%)/400mg/L [4, 8]: 30±0%

Cc1ccc(S(=O)(=O)n2c3ccccc3c3c2cc2cc(F)ccc2[n+]3C)cc1 [Example 11]
inhibition at 500 µg/mL [1]: 27.6 ± 1.4%
inhibition at 500 µg/mL [2]: 30.1 ± 1.1%
inhibition at 500 µg/mL [3]: 22.3 ± 1%
pest or weed control at 400 µg/mL [4, 6]: 40%

CC(N)CNc1c2ccccc2[n+](C)c2c1[nH]c1ccccc12 (stereo not drawn) [Example 35]
TMV activity [1]: better TMV activity than the ribavirin
inhibition at 500 µg/mL [1]: 41 ± 2.4%
inhibition at 500 µg/mL [2]: 48 ± 1.5%
inhibition at 500 µg/mL [3]: 44.3 ± 2.9%
pest or weed control at 400 µg/mL [4, 5]: 25 ± 5%

COc1ccc2c(c1)c1c(cc3ccccc3[n+]1C)n2S(=O)(=O)c1ccc(C)cc1 [Example 3]
inhibition at 500 µg/mL [1]: 18.1 ± 3.1%
inhibition at 500 µg/mL [2]: 19.1 ± 0.1%
inhibition at 500 µg/mL [3]: 20.3 ± 0.2%
pest or weed control at 400 µg/mL [4, 6]: 35 ± 5%

C[n+]1c2ccccc2c(NCCCN2CCCCC2)c2[nH]c3ccccc3c21 [Example 47]
inhibition at 500 µg/mL [1]: 36.4 ± 2.8%
inhibition at 500 µg/mL [2]: 33.3 ± 2%
inhibition at 500 µg/mL [3]: 35.7 ± 0.3%
pest or weed control at 400 µg/mL [4, 5]: 45 ± 5%
pest or weed control at 400 µg/mL [4, 9]: > 50%

CN1CCCC(CNc2c3ccccc3[n+](C)c3c2[nH]c2ccccc23)C1 (stereo not drawn) [Example 46]
TMV activity [1]: better TMV activity than the ribavirin
inhibition at 500 µg/mL [1]: 44.7 ± 4%
inhibition at 500 µg/mL [2]: 40.1 ± 0.9%
inhibition at 500 µg/mL [3]: 46.3 ± 3.5%
pest or weed control at 400 µg/mL [4, 5]: 30%

C[n+]1c2ccccc2c(NCC(C)(C)N)c2[nH]c3ccccc3c21 [Example 36]
inhibition at 500 µg/mL [1]: 29.8 ± 2.1%
inhibition at 500 µg/mL [2]: 30.1 ± 0.2%
inhibition at 500 µg/mL [3]: 28.7 ± 1.1%
pest or weed control at 400 µg/mL [4, 5]: 35 ± 5%
